# From patent publication US20060134102A1, “Lymphotoxin beta receptor agents in combination with chemotherapeutic agents” (Biogen Idec MA Inc., priority 2002, published 2006)
# Test system: KM-20L2 human colorectal adenocarcinoma
# Test: KM-20L2 xenograft model: growth of established KM-20L2 human colorectal tumors in athymic nude mice (tumor volume/weight, % T/C, Fa, Combination Index)
# Type: in vivo
substance,measurement,setting,value
"huCBE11: humanized anti-LT-β-R agonist antibody (LTβ receptor-activating mAb), described in WO 02/30986",Median Effect Dose,"Combined (1:0.63 huCBE11:Camptosar), dose of the labelled agent in the combination, Day 13",10.7 mg/kg
same,Median Effect Dose,"Combined (1:0.63 huCBE11:Camptosar), dose of the labelled agent in the combination, Day 16",2.6 mg/kg
same,Median Effect Dose,"Combined (1:0.63 huCBE11:Camptosar), dose of the labelled agent in the combination, Day 20",1.0 mg/kg
same,Median Effect Dose,"Combined (1:0.63 huCBE11:Camptosar), dose of the labelled agent in the combination, Day 23",1.1 mg/kg
same,Median Effect Dose,"Combined (1:0.63 huCBE11:Camptosar), dose of the labelled agent in the combination, Day 27",1.5 mg/kg
same,Median Effect Dose,"Combined (1:0.63 huCBE11:Camptosar), dose of the labelled agent in the combination, Day 30",1.8 mg/kg
same,Median Effect Dose,"Combined (1:0.63 huCBE11:Camptosar), dose of the labelled agent in the combination, Day 34",1.8 mg/kg
same,Median Effect Dose,"Combined (1:0.63 huCBE11:Camptosar), dose of the labelled agent in the combination, Day 37",1.6 mg/kg
same,Median Effect Dose,"Combined (1:0.63 huCBE11:Camptosar), dose of the labelled agent in the combination, Day 41",1.5 mg/kg
same,Median Effect Dose,"Given Separately, Day 13",174 mg/kg
same,Median Effect Dose,"Given Separately, Day 16",981 mg/kg
same,Median Effect Dose,"Given Separately, Day 20",32.7 mg/kg
same,Median Effect Dose,"Given Separately, Day 23",9.0 mg/kg
same,Median Effect Dose,"Given Separately, Day 27",2.1 mg/kg
same,Median Effect Dose,"Given Separately, Day 30",3.8 mg/kg
same,Median Effect Dose,"Given Separately, Day 34",3.6 mg/kg
same,Median Effect Dose,"Given Separately, Day 37",6.6 mg/kg
same,Median Effect Dose,"Given Separately, Day 41",3.0 mg/kg
same,Median Effect Dose,Given Separately; Day 16,2077 mg/kg
same,Median Effect Dose,Given Separately; Day 20,9.5 mg/kg
same,Median Effect Dose,Given Separately; Day 23,4.8 mg/kg
same,Median Effect Dose,Given Separately; Day 27,3.3 mg/kg
same,Median Effect Dose,Given Separately; Day 30,3.8 mg/kg
same,Median Effect Dose,Given Separately; Day 34,3.2 mg/kg
same,Median Effect Dose,Given Separately; Day 37,2.7 mg/kg
same,Median Effect Dose,Given Separately; Day 41,2.4 mg/kg
same,Median Effect Dose,Given Separately; Day 43,2.4 mg/kg
same,Median Effect Dose,dose of the labelled agent when huCBE11 and Gemcitabine Combined (4:5); Day 16,3.6 mg/kg
same,Median Effect Dose,dose of the labelled agent when huCBE11 and Gemcitabine Combined (4:5); Day 20,1.3 mg/kg
same,Median Effect Dose,dose of the labelled agent when huCBE11 and Gemcitabine Combined (4:5); Day 23,0.6 mg/kg
same,Median Effect Dose,dose of the labelled agent when huCBE11 and Gemcitabine Combined (4:5); Day 27,0.7 mg/kg
same,Median Effect Dose,dose of the labelled agent when huCBE11 and Gemcitabine Combined (4:5); Day 30,0.6 mg/kg
same,Median Effect Dose,dose of the labelled agent when huCBE11 and Gemcitabine Combined (4:5); Day 34,0.6 mg/kg
same,Median Effect Dose,dose of the labelled agent when huCBE11 and Gemcitabine Combined (4:5); Day 37,0.4 mg/kg
same,Median Effect Dose,dose of the labelled agent when huCBE11 and Gemcitabine Combined (4:5); Day 41,0.6 mg/kg
same,Median Effect Dose,dose of the labelled agent when huCBE11 and Gemcitabine Combined (4:5); Day 43,0.4 mg/kg
same,% T/C,hCBE11 2 mg/kg; Days 41 to 55,≤ 42%
same,% T/C,hCBE11 4 mg/kg; Days 50 and 55,≤ 42%
same,Mean Fraction Affected (Fa),"huCBE11 0.2 mg/kg alone, Day 9",−0.026
same,Mean Fraction Affected (Fa),"huCBE11 0.2 mg/kg alone, Day 13",0.003
same,Mean Fraction Affected (Fa),"huCBE11 0.2 mg/kg alone, Day 16",0.125
same,Mean Fraction Affected (Fa),"huCBE11 0.2 mg/kg alone, Day 20",0.249
same,Mean Fraction Affected (Fa),"huCBE11 0.2 mg/kg alone, Day 23",0.294
same,Mean Fraction Affected (Fa),"huCBE11 0.2 mg/kg alone, Day 27",0.377
same,Mean Fraction Affected (Fa),"huCBE11 0.2 mg/kg alone, Day 30",0.369
same,Mean Fraction Affected (Fa),"huCBE11 0.2 mg/kg alone, Day 34",0.345
same,Mean Fraction Affected (Fa),"huCBE11 0.2 mg/kg alone, Day 37",0.372
same,Mean Fraction Affected (Fa),"huCBE11 0.2 mg/kg alone, Day 41",0.381
same,Mean Fraction Affected (Fa),huCBE11 0.2 mg/kg; Day 9,0.063
same,Mean Fraction Affected/Fraction Unaffected (Fa/Fu),huCBE11 0.2 mg/kg; Day 9,0.067
same,Mean Tumor Volume,huCBE11 0.2 mg/kg; Day 9,104.8 cubic mm
same,Mean Tumor Volume Decrease,huCBE11 0.2 mg/kg; Day 9,7.0 cubic mm
same,Mean Fraction Affected (Fa),huCBE11 0.2 mg/kg; Day 13,0.071
same,Mean Fraction Affected/Fraction Unaffected (Fa/Fu),huCBE11 0.2 mg/kg; Day 13,0.076
same,Mean Tumor Volume,huCBE11 0.2 mg/kg; Day 13,160.4 cubic mm
same,Mean Tumor Volume Decrease,huCBE11 0.2 mg/kg; Day 13,12.2 cubic mm
same,Mean Fraction Affected (Fa),huCBE11 0.2 mg/kg; Day 16,0.055
same,Mean Fraction Affected/Fraction Unaffected (Fa/Fu),huCBE11 0.2 mg/kg; Day 16,0.058
same,Mean Tumor Volume,huCBE11 0.2 mg/kg; Day 16,250.5 cubic mm
same,Mean Tumor Volume Decrease,huCBE11 0.2 mg/kg; Day 16,14.5 cubic mm
same,Mean Fraction Affected (Fa),huCBE11 0.2 mg/kg; Day 20,0.073
same,Mean Fraction Affected/Fraction Unaffected (Fa/Fu),huCBE11 0.2 mg/kg; Day 20,0.078
same,Mean Tumor Volume,huCBE11 0.2 mg/kg; Day 20,371.9 cubic mm
same,Mean Tumor Volume Decrease,huCBE11 0.2 mg/kg; Day 20,29.1 cubic mm
same,Mean Fraction Affected (Fa),huCBE11 0.2 mg/kg; Day 23,0.016
same,Mean Fraction Affected/Fraction Unaffected (Fa/Fu),huCBE11 0.2 mg/kg; Day 23,0.016
same,Mean Tumor Volume,huCBE11 0.2 mg/kg; Day 23,518.7 cubic mm
same,Mean Tumor Volume Decrease,huCBE11 0.2 mg/kg; Day 23,8.5 cubic mm
same,Mean Fraction Affected/Fraction Unaffected (Fa/Fu),huCBE11 0.2 mg/kg; Day 27,−0.008
same,Mean Tumor Volume,huCBE11 0.2 mg/kg; Day 27,673.8 cubic mm
same,Mean Tumor Volume Decrease,huCBE11 0.2 mg/kg; Day 27,−5.2 cubic mm
same,Mean Fraction Affected (Fa),huCBE11 0.2 mg/kg; Day 30,0.030
same,Mean Fraction Affected/Fraction Unaffected (Fa/Fu),huCBE11 0.2 mg/kg; Day 30,0.030
same,Mean Tumor Volume,huCBE11 0.2 mg/kg; Day 30,792.1 cubic mm
same,Mean Tumor Volume Decrease,huCBE11 0.2 mg/kg; Day 30,24.1 cubic mm
same,Mean Fraction Affected (Fa),huCBE11 0.2 mg/kg; Day 34,0.118
same,Mean Fraction Affected/Fraction Unaffected (Fa/Fu),huCBE11 0.2 mg/kg; Day 34,0.134
same,Mean Tumor Volume,huCBE11 0.2 mg/kg; Day 34,926.4 cubic mm
same,Mean Tumor Volume Decrease,huCBE11 0.2 mg/kg; Day 34,123.9 cubic mm
same,Mean Fraction Affected (Fa),huCBE11 0.2 mg/kg; Day 37,0.132
same,Mean Fraction Affected/Fraction Unaffected (Fa/Fu),huCBE11 0.2 mg/kg; Day 37,0.152
same,Mean Tumor Volume,huCBE11 0.2 mg/kg; Day 37,1048.5 cubic mm
same,Mean Tumor Volume Decrease,huCBE11 0.2 mg/kg; Day 37,159.5 cubic mm
same,Mean Fraction Affected (Fa),huCBE11 0.2 mg/kg; Day 41,0.120
same,Mean Fraction Affected/Fraction Unaffected (Fa/Fu),huCBE11 0.2 mg/kg; Day 41,0.137
same,Mean Tumor Volume,huCBE11 0.2 mg/kg; Day 41,1266.0 cubic mm
same,Mean Tumor Volume Decrease,huCBE11 0.2 mg/kg; Day 41,173.4 cubic mm
same,Mean Fraction Affected (Fa),huCBE11 0.2 mg/kg; Day 43,0.096
same,Mean Fraction Affected/Fraction Unaffected (Fa/Fu),huCBE11 0.2 mg/kg; Day 43,0.107
same,Mean Tumor Volume,huCBE11 0.2 mg/kg; Day 43,1452.0 cubic mm
same,Mean Tumor Volume Decrease,huCBE11 0.2 mg/kg; Day 43,154.7 cubic mm
same,Mean Fraction Affected (Fa),"huCBE11 2 mg/kg alone, Day 9",0.101
same,Mean Fraction Affected (Fa),"huCBE11 2 mg/kg alone, Day 13",0.137
same,Mean Fraction Affected (Fa),"huCBE11 2 mg/kg alone, Day 16",0.322
same,Mean Fraction Affected (Fa),"huCBE11 2 mg/kg alone, Day 20",0.458
same,Mean Fraction Affected (Fa),"huCBE11 2 mg/kg alone, Day 23",0.497
same,Mean Fraction Affected (Fa),"huCBE11 2 mg/kg alone, Day 27",0.542
same,Mean Fraction Affected (Fa),"huCBE11 2 mg/kg alone, Day 30",0.524
same,Mean Fraction Affected (Fa),"huCBE11 2 mg/kg alone, Day 34",0.541
same,Mean Fraction Affected (Fa),"huCBE11 2 mg/kg alone, Day 37",0.485
same,Mean Fraction Affected (Fa),"huCBE11 2 mg/kg alone, Day 41",0.541
same,"% T/C, lowest observed",huCBE11 2 mg/kg and 4 mg/kg; dose ranging study,> 42%
